From US9359418B2, “Inhibitors of the T cell-specific alternative p38 activation pathway and methods of use” (The United States of America, as represented by the …, priority 2012, dated 2016)

Key:
[1] = system: tumor-infiltrating T cells; assay: KPC mice, intracellular TNF-α of tumor infiltrating cells after intraperitoneal injection; format: in vivo; details: 80 μg intraperitoneal every other day for 1 month
Procedure: FIG. 12 is a panel of flow cytometry plots showing that intraperitoneal injection of (11R)-71-85 inhibits TNF-α secretion from tumor-infiltrating T cells from KPC mice. KPC mice are genetically engineered to develop pancreatic cancer because of oncogene expression and p53 haploinsufficiency. KPC mice received intraperitoneal injections of 80 μg of either (11R)-71-85 or (11R)-Scrambled every other day for 1 month. Twenty-four hours after the last injection, tumor infiltrating cells were harvested and restimulated with PMA and ionomycin, or left unstimulated, in the presence of Golgi inhibitor for 4 hours. Expression of intracellular TNF-α was determined by flow cytometry.
A second murine model of pancreatic cancer was used to evaluate the effect of (11R)-71-85 on cytokine secretion by tumor cells. KPC mice are genetically engineered to develop pancreatic cancer because of oncogene expression and p53 haploinsufficiency. KPC mice were administered 80 μg of either (11R)-71-85 or (11R)-Scrambled by intraperitoneal injection every other day for 1 month. Twenty-four hours after the last injection, tumor infiltrating cells were harvested and restimulated with PMA and ionomycin, or left unstimulated, in the presence of Golgi inhibitor for 4 hours. Expression of intracellular TNF-α was determined by flow cytometry (FIG. 12).

Nfatc1 and Irf4 mRNA = Nfatc1 and Irf4 mRNA in spleen T cells after i.v. injection; format: in vivo, mice; details: 50 μg i.v.; total T cells and CD4+ T cells from spleen
Procedure: FIG. 8 is a series of graphs showing reduction in expression of Nfatc1 and Irf4 in CD4^+ T cells following injection of (11R)-71-85. WT C57BL/6 mice were injected i.v. with 50 μg of DMSO, (11R)-Scrambled, or (11R)-71-85 and either total T cells or CD4±T cells were purified from spleen at different times. Purified cells were stimulated in vitro with anti-CD3/CD28 for 24 hours and the mRNA levels of the indicated transcription factors were determined by quantitative real-time PCR.
Expression of NFATc1 and IRF4, two transcription factors activated upon TCR stimulation, was also evaluated after intravenous (i.v.) injection of (11R)-71-85. WT C57BL/6 mice were injected i.v. with 50 μg of DMSO, (11R)-Scrambled, or (11R)-71-85, and either total T cells or CD4±T cells were purified from spleen at different times. Purified cells were stimulated in vitro with anti-CD3/CD28 for 24 hours and the mRNA levels of Nfatc1 and Irf4 were determined by quantitative real-time PCR.

CD4+ T cells = assay: Cellular uptake of FITC conjugated peptides by purified CD4+ T cells; format: cell-based; details: FITC conjugated peptide, 2 hours at 37° C., flow cytometry
Procedure: FIG. 1 is a graph showing cellular uptake of (11R)-71-85 and (11R)-Ctrl. Purified CD4^+ T cells were treated with either FITC conjugated (11R)-71-85 or (11R)-Ctrl, or left untreated for 2 hours at 37° C. After incubation, cells were washed and analyzed by flow cytometry for FITC positivity.
To generate a cell-permeable form of the Gadd45α 71-85 peptide, 11 arginine residues were added to the N-terminus to produce a fusion protein referred to herein as (11R)-71-85. Cell-permeability of (11R)-71-85 was tested using purified CD4^+ T cells. (11R)-71-85 and a control peptide fused to 11 arginine residues (referred to as (11R)-Ctrl) were FITC conjugated. Purified CD4^+ T cells were treated with either FITC conjugated (11R)-71-85 or (11R)-Ctrl, or left untreated for 2 hours at 37° C. After incubation, cells were washed and analyzed by flow cytometry for FITC positivity.

T cells [2] = assay: Inflammatory cytokine production by T cells (flow cytometry); format: cell-based
Text: FIGS. 4A-4B are a series flow cytometry plots showing inflammatory cytokine secretion by CD4^+ (FIG. 4A) and CD8^+ (FIG. 4B) T cells. T cells were purified from spleen and stimulated with anti-CD3 plus anti-CD28 for 3 days. Cells were then left unstimulated overnight and treated with the indicated concentrations of (11R)-71-85, control peptide (11R)-Ctrl, or DMSO (no peptide). After treatment, cells were restimulated with either anti-CD3 plus anti-CD28, or PMA plus ionomycin supplemented with monensin. Cytokine expression was measured by flow-cytometry.
To evaluate cytokine production, T cells were purified from spleen and stimulated with anti-CD3 plus anti-CD28 for 3 days. Cells were then left unstimulated overnight and treated with 1 or 2 μM (11R)-71-85 or control peptide (11R)-Ctrl, or with DMSO only. After treatment, cells were restimulated with either anti-CD3 plus anti-CD28 (to stimulate the TCR and the alternative p38 pathway), or PMA plus ionomycin supplemented with monensin (to stimulate the classical p38 pathway). Cytokine expression was measured by flow-cytometry.

T cells [3] = assay: T cell proliferation after anti-CD3 and anti-CD28 stimulation; format: cell-based; details: 0.2, 0.5, 1.0, 2.0 or 4.0 μg; anti-CD3 and anti-CD28 for 2 days
Procedure: FIG. 3 is a graph showing T cell proliferation in response to (11R)-71-85. T cells were purified from spleen and treated with different concentrations of (11R)-71-85 or control peptide (11R)-Ctrl. Cells were then washed and stimulated with anti-CD3 and anti-CD28 for 2 days and finally pulsed with 1 μCi [^3H]-thymidine 14 hours before harvesting. [^3H]-thymidine uptake was determined with a Wallac 1450 MicroBeta Liquid Scintillation Counter.
The ability of (11R)-71-85 to inhibit T cell proliferation and inflammatory cytokine production was also evaluated. T cells were purified from spleen and treated with different concentrations (0.2, 0.5, 1.0, 2.0 or 4.0 μg) of (11R)-71-85 or the control peptide (11R)-Ctrl. Cells were then washed and stimulated with anti-CD3 and anti-CD28 for 2 days and finally pulsed with 1 μCi [^3H]-thymidine 14 hours before harvesting. [^3H]-thymidine uptake was determined with a Wallac 1450 MicroBeta Liquid Scintillation Counter.

## (11R)-71-85: fusion protein: 11 arginine residues added to the N-terminus of the Gadd45α 71-85 peptide (LQIHFTLIQAFCCEN; N-terminal 11 arginine; UniProt P24522 71-85, looked up, fragment)
[1]
  TNF-α secretion by tumor-infiltrating T cells: inhibits
Nfatc1 and Irf4 mRNA
  Irf4 mRNA expression following TCR stimulation: inhibits
  Nfatc1 mRNA expression following TCR stimulation: inhibits
CD4+ T cells
  cellular uptake (FITC positivity): taken up by the T cells
T cells [2]; 2 μM versus 1 μM
  inhibition of production of TNF-α and IFN-γ, 2 μM compared with 1 μM: to a greater extent
T cells [2]; 1 or 2 μM, restimulated with PMA plus ionomycin
  cytokine production in response to PMA plus ionomycin: no significant effect
T cells [2]; 1 or 2 μM, restimulated with anti-CD3 plus anti-CD28
  production of TNF-α in response to TCR stimulation: inhibits
T cells [3]
  T cell proliferation ([3H]-thymidine uptake) in response to TCR stimulation: dose-dependent decrease
